{"source": "paper PMC8800111", "about": "(The Journal of Biological Chemistry, 2021)", "format_in_all_cases": "cell-based", "key": {"[1]": {"biological_target": "proteins of U3A human fibrosarcoma cells (4462 proteins detected) (Homo sapiens, UniProt O00299)", "settings": "protein CLIC1, U3A cells"}, "[2]": {"biological_target": "proteins of U3A human fibrosarcoma cells (4462 proteins detected) (Homo sapiens, UniProt O00422)", "sequence (O00422 whole entry)": "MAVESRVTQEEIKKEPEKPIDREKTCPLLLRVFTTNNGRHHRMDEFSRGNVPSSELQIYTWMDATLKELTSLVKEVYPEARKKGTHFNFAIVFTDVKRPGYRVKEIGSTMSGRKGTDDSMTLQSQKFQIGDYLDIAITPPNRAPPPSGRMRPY", "settings": "protein SAP18; soluble abundance after heat, U3A cells"}, "[3]": {"biological_target": "proteins of U3A human fibrosarcoma cells (4462 proteins detected) (Homo sapiens, UniProt O00629)", "settings": "protein KPNA4; U3A cells"}, "[4]": {"biological_target": "proteins of U3A human fibrosarcoma cells (4462 proteins detected) (Homo sapiens, UniProt O75151)", "sequence (O75151 whole entry)": "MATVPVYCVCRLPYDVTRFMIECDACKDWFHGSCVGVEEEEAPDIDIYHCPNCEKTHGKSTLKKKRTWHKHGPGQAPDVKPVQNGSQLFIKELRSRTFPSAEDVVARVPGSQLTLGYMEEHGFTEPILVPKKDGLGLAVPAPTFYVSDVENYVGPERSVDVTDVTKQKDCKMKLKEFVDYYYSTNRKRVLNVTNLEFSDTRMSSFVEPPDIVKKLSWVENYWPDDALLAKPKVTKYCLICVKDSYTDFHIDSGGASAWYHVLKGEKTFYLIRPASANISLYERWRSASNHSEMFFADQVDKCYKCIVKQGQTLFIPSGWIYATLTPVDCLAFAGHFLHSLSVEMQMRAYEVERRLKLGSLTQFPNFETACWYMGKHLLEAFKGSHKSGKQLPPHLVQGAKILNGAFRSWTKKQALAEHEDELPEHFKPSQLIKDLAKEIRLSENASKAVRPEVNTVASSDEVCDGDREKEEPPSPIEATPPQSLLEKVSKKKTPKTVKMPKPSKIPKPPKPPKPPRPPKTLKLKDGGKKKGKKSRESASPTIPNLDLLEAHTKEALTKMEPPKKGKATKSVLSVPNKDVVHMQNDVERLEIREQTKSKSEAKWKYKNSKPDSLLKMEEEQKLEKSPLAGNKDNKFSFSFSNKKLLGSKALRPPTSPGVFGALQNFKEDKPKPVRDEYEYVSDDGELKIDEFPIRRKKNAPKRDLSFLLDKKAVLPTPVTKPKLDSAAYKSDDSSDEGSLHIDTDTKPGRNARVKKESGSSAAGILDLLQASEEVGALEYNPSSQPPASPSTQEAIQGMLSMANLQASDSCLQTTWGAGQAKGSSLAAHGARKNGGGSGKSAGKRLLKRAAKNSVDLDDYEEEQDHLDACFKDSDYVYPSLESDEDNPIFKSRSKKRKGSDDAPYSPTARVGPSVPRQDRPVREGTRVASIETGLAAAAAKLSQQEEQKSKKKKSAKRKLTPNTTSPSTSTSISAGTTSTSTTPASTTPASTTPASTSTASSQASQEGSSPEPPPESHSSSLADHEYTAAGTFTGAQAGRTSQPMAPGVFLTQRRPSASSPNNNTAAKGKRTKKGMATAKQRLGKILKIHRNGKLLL", "settings": "protein PHF2; soluble abundance after heat, U3A cells"}, "[5]": {"biological_target": "proteins of U3A human fibrosarcoma cells (4462 proteins detected) (Homo sapiens, UniProt O76021)", "settings": "protein RSL1D1; soluble abundance after heat, U3A cells"}, "[6]": {"biological_target": "proteins of U3A human fibrosarcoma cells (4462 proteins detected) (Homo sapiens, UniProt O95801)", "settings": "protein TTC4; soluble abundance after heat, U3A cells"}, "[7]": {"biological_target": "proteins of U3A human fibrosarcoma cells (4462 proteins detected) (Homo sapiens, UniProt P15927)", "sequence (P15927 whole entry)": "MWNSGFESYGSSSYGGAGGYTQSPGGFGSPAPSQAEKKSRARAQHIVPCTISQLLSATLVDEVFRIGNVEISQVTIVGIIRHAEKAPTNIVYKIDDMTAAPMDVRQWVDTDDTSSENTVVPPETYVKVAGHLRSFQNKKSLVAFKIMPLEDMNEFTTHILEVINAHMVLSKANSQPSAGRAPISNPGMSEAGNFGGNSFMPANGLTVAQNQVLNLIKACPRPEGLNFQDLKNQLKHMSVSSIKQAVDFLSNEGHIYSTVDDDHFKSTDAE", "settings": "protein RPA2; U3A cells"}, "[8]": {"biological_target": "proteins of U3A human fibrosarcoma cells (4462 proteins detected) (Homo sapiens, UniProt P30419)", "settings": "protein NMT1, U3A cells"}, "[9]": {"biological_target": "proteins of U3A human fibrosarcoma cells (4462 proteins detected) (Homo sapiens, UniProt P41229)", "sequence (P41229 whole entry)": "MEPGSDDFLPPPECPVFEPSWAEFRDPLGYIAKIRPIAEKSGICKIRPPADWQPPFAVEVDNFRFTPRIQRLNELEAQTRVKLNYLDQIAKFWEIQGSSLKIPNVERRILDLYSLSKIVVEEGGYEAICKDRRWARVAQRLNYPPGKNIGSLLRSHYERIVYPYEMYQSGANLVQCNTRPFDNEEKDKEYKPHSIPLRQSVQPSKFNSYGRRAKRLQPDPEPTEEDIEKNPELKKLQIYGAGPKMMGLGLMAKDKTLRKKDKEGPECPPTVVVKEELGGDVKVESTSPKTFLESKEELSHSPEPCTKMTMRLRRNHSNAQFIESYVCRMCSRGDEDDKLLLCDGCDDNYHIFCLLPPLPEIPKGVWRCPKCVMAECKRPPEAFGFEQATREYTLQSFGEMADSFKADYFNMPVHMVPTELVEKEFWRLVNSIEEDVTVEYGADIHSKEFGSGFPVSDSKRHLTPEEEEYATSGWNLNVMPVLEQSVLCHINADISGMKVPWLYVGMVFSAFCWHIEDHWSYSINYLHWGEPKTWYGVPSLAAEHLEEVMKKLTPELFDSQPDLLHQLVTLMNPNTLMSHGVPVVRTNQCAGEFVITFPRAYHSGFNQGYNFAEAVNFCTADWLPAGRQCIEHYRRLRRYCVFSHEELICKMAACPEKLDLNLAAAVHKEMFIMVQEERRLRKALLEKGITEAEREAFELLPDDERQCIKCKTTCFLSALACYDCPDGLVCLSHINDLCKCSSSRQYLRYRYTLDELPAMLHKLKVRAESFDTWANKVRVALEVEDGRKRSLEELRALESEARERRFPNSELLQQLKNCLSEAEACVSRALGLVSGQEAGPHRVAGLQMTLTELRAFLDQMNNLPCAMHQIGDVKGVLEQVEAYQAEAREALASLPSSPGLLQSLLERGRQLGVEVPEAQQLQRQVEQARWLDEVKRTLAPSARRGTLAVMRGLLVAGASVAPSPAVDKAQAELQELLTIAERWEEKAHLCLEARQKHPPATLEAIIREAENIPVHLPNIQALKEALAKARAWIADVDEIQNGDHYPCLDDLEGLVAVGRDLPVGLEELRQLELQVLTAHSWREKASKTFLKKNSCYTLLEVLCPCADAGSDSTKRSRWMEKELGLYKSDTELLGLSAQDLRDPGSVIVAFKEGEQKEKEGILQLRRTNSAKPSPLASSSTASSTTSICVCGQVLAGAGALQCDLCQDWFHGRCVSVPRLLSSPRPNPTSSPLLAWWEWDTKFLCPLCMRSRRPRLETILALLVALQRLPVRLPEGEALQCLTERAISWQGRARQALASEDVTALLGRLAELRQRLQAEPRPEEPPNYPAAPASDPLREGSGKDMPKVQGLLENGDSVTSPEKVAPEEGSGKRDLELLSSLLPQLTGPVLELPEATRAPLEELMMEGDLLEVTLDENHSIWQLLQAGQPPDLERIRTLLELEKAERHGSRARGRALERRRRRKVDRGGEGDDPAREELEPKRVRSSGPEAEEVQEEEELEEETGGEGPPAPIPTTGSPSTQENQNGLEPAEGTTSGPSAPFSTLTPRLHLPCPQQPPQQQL", "settings": "protein KDM5C; U3A cells"}, "[10]": {"biological_target": "proteins of U3A human fibrosarcoma cells (4462 proteins detected) (Homo sapiens, UniProt P49368)", "settings": "protein CCT3; U3A cells"}, "[11]": {"biological_target": "proteins of U3A human fibrosarcoma cells (4462 proteins detected) (Homo sapiens, UniProt P56277)", "settings": "protein CMC4; U3A, 10 μM, 2 h"}, "[12]": {"biological_target": "proteins of U3A human fibrosarcoma cells (4462 proteins detected) (Homo sapiens, UniProt Q12874)", "settings": "protein SF3A3; U3A cells"}, "[13]": {"biological_target": "proteins of U3A human fibrosarcoma cells (4462 proteins detected) (Homo sapiens, UniProt Q12931)", "settings": "protein TRAP1; U3A cells"}, "[14]": {"biological_target": "proteins of U3A human fibrosarcoma cells (4462 proteins detected) (Homo sapiens, UniProt Q15041)", "settings": "protein ARL6IP1; U3A cells"}, "[15]": {"biological_target": "proteins of U3A human fibrosarcoma cells (4462 proteins detected) (Homo sapiens, UniProt Q15051)", "sequence (Q15051 whole entry)": "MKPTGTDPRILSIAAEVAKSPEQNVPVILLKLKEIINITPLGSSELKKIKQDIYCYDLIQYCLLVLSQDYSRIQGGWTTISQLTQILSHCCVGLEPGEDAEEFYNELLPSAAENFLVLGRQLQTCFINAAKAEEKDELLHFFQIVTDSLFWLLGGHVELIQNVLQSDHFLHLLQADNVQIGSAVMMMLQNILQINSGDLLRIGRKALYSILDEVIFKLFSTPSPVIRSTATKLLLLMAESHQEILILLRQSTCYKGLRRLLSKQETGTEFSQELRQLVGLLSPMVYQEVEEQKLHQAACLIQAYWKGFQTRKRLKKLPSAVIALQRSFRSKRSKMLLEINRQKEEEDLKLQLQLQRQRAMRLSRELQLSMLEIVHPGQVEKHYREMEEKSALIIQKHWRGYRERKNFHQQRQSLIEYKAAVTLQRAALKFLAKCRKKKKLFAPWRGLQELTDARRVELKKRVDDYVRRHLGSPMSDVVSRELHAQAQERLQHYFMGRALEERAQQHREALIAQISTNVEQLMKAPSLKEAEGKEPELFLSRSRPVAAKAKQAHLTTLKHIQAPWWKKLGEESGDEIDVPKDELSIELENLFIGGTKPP", "settings": "protein IQCB1; U3A, 10 μM, 2 h"}, "[16]": {"biological_target": "proteins of U3A human fibrosarcoma cells (4462 proteins detected) (Homo sapiens, UniProt Q49AR2)", "settings": "protein C5orf22, U3A cells"}, "[17]": {"biological_target": "proteins of U3A human fibrosarcoma cells (4462 proteins detected) (Homo sapiens, UniProt Q6QNY1)", "sequence (Q6QNY1 whole entry)": "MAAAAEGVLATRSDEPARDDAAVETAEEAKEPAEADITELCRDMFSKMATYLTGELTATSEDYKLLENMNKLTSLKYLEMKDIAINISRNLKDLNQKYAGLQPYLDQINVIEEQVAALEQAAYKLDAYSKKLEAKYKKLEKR", "settings": "protein BLOC1S2, U3A cells"}, "[18]": {"biological_target": "proteins of U3A human fibrosarcoma cells (4462 proteins detected) (Homo sapiens, UniProt Q7L2H7)", "settings": "protein EIF3M; U3A cells"}, "[19]": {"biological_target": "proteins of U3A human fibrosarcoma cells (4462 proteins detected) (Homo sapiens, UniProt Q8IXQ4)", "settings": "protein GPALPP1, U3A cells"}, "[20]": {"biological_target": "proteins of U3A human fibrosarcoma cells (4462 proteins detected) (Homo sapiens, UniProt Q8IYB8)", "settings": "protein SUPV3L1; U3A cells"}, "[21]": {"biological_target": "proteins of U3A human fibrosarcoma cells (4462 proteins detected) (Homo sapiens, UniProt Q8N129)", "sequence (Q8N129 22-248)": "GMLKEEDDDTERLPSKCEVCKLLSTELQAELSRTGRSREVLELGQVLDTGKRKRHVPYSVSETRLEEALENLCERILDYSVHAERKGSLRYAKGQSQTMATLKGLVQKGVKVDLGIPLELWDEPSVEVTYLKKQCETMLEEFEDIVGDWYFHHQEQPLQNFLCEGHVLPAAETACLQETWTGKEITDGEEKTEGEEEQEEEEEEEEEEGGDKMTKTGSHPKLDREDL", "settings": "protein CNPY4, U3A cells"}, "[22]": {"biological_target": "proteins of U3A human fibrosarcoma cells (4462 proteins detected) (Homo sapiens, UniProt Q96BP2)", "settings": "protein CHCHD1; soluble abundance after heat, U3A cells"}, "[23]": {"biological_target": "proteins of U3A human fibrosarcoma cells (4462 proteins detected) (Homo sapiens, UniProt Q9BUL8)", "sequence (Q9BUL8 whole entry)": "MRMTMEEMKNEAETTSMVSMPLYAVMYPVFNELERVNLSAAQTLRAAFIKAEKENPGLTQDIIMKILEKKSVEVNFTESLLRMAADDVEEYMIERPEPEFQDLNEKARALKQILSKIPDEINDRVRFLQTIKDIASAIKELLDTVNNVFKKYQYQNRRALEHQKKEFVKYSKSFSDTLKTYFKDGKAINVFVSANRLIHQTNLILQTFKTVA", "settings": "protein PDCD10; soluble abundance after heat, U3A cells"}, "[24]": {"biological_target": "proteins of U3A human fibrosarcoma cells (4462 proteins detected) (Homo sapiens, UniProt Q9H1D9)", "settings": "protein POLR3F; U3A cells"}, "[25]": {"biological_target": "proteins of U3A human fibrosarcoma cells (4462 proteins detected) (Homo sapiens, UniProt Q9H6T3)", "settings": "protein RPAP3; soluble abundance after heat, U3A cells"}, "[26]": {"biological_target": "proteins of U3A human fibrosarcoma cells (4462 proteins detected) (Homo sapiens, UniProt Q9HAT2)", "sequence (Q9HAT2 24-523)": "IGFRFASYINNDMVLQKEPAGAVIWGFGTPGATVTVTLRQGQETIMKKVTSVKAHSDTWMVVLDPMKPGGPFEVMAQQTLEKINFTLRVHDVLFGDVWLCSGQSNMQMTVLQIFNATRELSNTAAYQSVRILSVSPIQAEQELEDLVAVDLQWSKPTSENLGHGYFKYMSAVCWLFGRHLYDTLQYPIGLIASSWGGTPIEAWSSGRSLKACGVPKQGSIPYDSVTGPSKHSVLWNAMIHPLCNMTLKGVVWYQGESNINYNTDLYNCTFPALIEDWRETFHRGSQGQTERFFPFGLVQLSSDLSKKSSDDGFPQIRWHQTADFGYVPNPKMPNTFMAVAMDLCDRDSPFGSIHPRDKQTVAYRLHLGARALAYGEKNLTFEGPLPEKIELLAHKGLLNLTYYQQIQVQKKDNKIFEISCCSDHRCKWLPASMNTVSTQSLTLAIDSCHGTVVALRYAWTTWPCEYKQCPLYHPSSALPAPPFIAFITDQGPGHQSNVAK", "settings": "protein SIAE; U3A, 10 μM, 2 h"}, "[27]": {"biological_target": "proteins of U3A human fibrosarcoma cells (4462 proteins detected) (Homo sapiens, UniProt Q9HB71)", "sequence (Q9HB71 whole entry)": "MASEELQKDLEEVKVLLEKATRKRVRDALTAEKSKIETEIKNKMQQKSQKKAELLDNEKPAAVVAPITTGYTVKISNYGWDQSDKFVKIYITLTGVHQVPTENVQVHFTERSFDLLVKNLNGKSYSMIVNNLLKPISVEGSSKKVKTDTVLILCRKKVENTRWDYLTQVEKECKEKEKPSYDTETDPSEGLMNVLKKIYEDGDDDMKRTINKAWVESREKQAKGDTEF", "settings": "protein CACYBP; U3A cells"}, "[28]": {"biological_target": "proteins of U3A human fibrosarcoma cells (4462 proteins detected) (Homo sapiens, UniProt Q9NPF4)", "settings": "protein OSGEP; soluble abundance after heat, U3A cells"}, "[29]": {"biological_target": "proteins of U3A human fibrosarcoma cells (4462 proteins detected) (Homo sapiens, UniProt Q9UBQ5)", "settings": "protein EIF3K; U3A cells"}, "[30]": {"biological_target": "proteins of U3A human fibrosarcoma cells (4462 proteins detected) (Homo sapiens, UniProt Q9UL16)", "settings": "protein CFAP45, U3A cells"}}, "data": [{"compound": "CCc1nc(N)nc(N)c1-c1ccc(Cl)cc1", "note": "[pyrimethamine]", "values": [{"measurement": "Log2 (PYR/DMSO)", "setting": "[1]", "value": -0.03}, {"measurement": "Log2 (PYR/DMSO)", "setting": "[2]", "value": 0.14}, {"measurement": "Log2 (PYR/DMSO)", "setting": "[3]", "value": 0.22}, {"measurement": "Log2 (PYR/DMSO)", "setting": "[4]", "value": 0.14}, {"measurement": "Log2 (PYR/DMSO)", "setting": "[5]", "value": 0.14}, {"measurement": "Log2 (PYR/DMSO)", "setting": "[6]", "value": 0.13}, {"measurement": "Log2 (PYR/DMSO)", "setting": "[7]", "value": 0.17}, {"measurement": "Log2 (PYR/DMSO)", "setting": "[8]", "value": -0.05}, {"measurement": "Log2 (PYR/DMSO)", "setting": "[9]", "value": 0.18}, {"measurement": "Log2 (PYR/DMSO)", "setting": "[10]", "value": 0.17}, {"measurement": "Log2 (PYR/DMSO), CMC4", "setting": "[11]", "value": 0.24}, {"measurement": "Log2 (PYR/DMSO)", "setting": "[12]", "value": 0.18}, {"measurement": "Log2 (PYR/DMSO)", "setting": "[13]", "value": 0.21}, {"measurement": "Log2 (PYR/DMSO)", "setting": "[14]", "value": 0.17}, {"measurement": "Log2 (PYR/DMSO), IQCB1", "setting": "[15]", "value": -0.16}, {"measurement": "Log2 (PYR/DMSO)", "setting": "[16]", "value": -0.04}, {"measurement": "Log2 (PYR/DMSO)", "setting": "[17]", "value": -0.04}, {"measurement": "Log2 (PYR/DMSO)", "setting": "[18]", "value": 0.18}, {"measurement": "Log2 (PYR/DMSO)", "setting": "[19]", "value": -0.04}, {"measurement": "Log2 (PYR/DMSO)", "setting": "[20]", "value": 0.19}, {"measurement": "Log2 (PYR/DMSO)", "setting": "[21]", "value": -0.04}, {"measurement": "Log2 (PYR/DMSO)", "setting": "[22]", "value": 0.15}, {"measurement": "Log2 (PYR/DMSO)", "setting": "[23]", "value": 0.15}, {"measurement": "Log2 (PYR/DMSO)", "setting": "[24]", "value": 0.17}, {"measurement": "Log2 (PYR/DMSO)", "setting": "[25]", "value": 0.14}, {"measurement": "Log2 (PYR/DMSO), SIAE", "setting": "[26]", "value": 0.34}, {"measurement": "Log2 (PYR/DMSO)", "setting": "[27]", "value": 0.19}, {"measurement": "Log2 (PYR/DMSO)", "setting": "[28]", "value": 0.14}, {"measurement": "Log2 (PYR/DMSO)", "setting": "[29]", "value": 0.20}, {"measurement": "Log2 (PYR/DMSO)", "setting": "[30]", "value": -0.04}]}]}
